Experimental data from patent US8349793B2, “Method for treatment of inflammatory disease and disorder” (Heal0r, Ltd., priority 2010, dated 2013).
Several values for one entry are separate records, joined by “and”; a condition that tells them apart may be missing. Equal entries are not always repeated. Where no end group is shown, it is not given here. The star is where a group is joined. Myristoyl = CCCCCCCCCCCCCC(=O)*

Columns and labels:
IKK = test: TNFα induced IKK activation in keratinocytes (Western Blot, phospho-IKKa/b); type: cell-based, Murine; details: TNFα 35 ng/ml for 15 minutes
Protocol: Murine primary keratinocytes were grown for 4 days to full confluence in Low Ca^+2 MEM. Cells were pretreated with designated concentration of MPDY-1 as described in the figure for 1 hour, prior to TNFα induction. Following MPDY-1 pretreatment, cells were incubated with TNFα 35 ng/ml for 15 minutes. Reaction was stopped by adding ice-cold dPBS−/− and keratinocytes were homogenized in RIPA buffer. Samples were subjected to SDS PAGE Western Blot analysis, utilizing phospho-IKKa/b (Ser176/180 antibody).

healthy volunteers = test: Histamine prick test model of pruritus; type: in vivo, human (healthy volunteers); details: for Pruritus score after minutes of histamine, 5 minutes / Pruritus score after minutes of histamine, 15 minutes: topical on forearm
Protocol: Forearms of individual subjects were injected with histamine solution and placebo. The formulation of Example 4 was topically applied with MPDY-1 at various concentrations and pruritus was assessed over a time course as shown, for example in FIG. 34.
This test was performed by placing a drop of a solution containing a possible allergen on the skin, and a series of scratches or needle pricks allow the solution to enter the skin. The extract enters into the outer layer of the skin (epidermis) using a fine needle (such as a. 26G disposable needle). This testing is not painful, and generally there is no bleeding involved since the needle only scratches the surface of the skin. If the skin develops a red, raised itchy area (called a wheal), it is as a result of allergic reaction to that allergen. This is called a positive reaction. A drop of extract is introduced through a fine needle (such as a No. 26 disposable needle). The test causes no discomfort and minimal trauma so that controls and negative test show only the site of the prick; if anything.
26G needles were utilized to introduce histamine stock (Histatrol Positive Control Histamine, 1 mg/ml, code #HIST14999V, Trupharm). The test was conducted on healthy volunteers in a double-blind, randomized test. The formulations were applied on the forearms. Three treatment areas were chosen and marked (the surface of the forearm from the elbow to the wrist was divided transversely into proximal, middle and distal thirds); the areas were pricked prior the below treatments.
An area was treated with the active formulation in a double-blind manner, for 10 minutes—marked as A.
An area was treated with the Placebo in a double-blind manner, for 10 minutes—marked as C.
A color photograph was taken at time zero (T0), after 10, 20, 30 minutes.
Pruritus questionnaire was answered by the subjects 5 and 15 minutes after treatment.
In one study, three subjects were treated, in the left or right arm, with MDPY-1 in gel or cream formulations, or with control formulations, as shown in Table 9.
Subjects were provided with pruritus sensation forms and asked to indicate the level of pruritus sensed from 0 (no response) to 4 (uncontrollable pruritus) at different time intervals.

keratinocytes = test: Cytokine secretion in keratinocytes stimulated by LPS, TNFα or IL-17 (ELISA); type: cell-based, BALB/C mice
Protocol: To determine their effects, keratinocytes were derived from newborn BALB/C mice skin. The cells were incubated for 5 days in 24 wells plate. Cells were then incubated with PBS−/− as control or stimulated by LPS, TNFα, or IL-17. PKCα inhibitors were added as indicated. Medium containing secreted cytokines was collected after 48 hr and analyzed using ELISA. FIG. 40 is a tabular summary of cytokine secretion.
PKCδactivators were also shown to have an anti-inflammatory effect on keratinocytes and splenocytes. Keratinocytes were derived from newborn BALB/C mice skin. The cells were incubated for 5 days in 24 wells plate. Cells were then incubated with PBS−/− as control or stimulated by LPS or TNFα. The PKCδ inhibitor DAP-1 (SEQ ID NO: 16) was added. Medium containing secreted cytokines was collected after 48 hr and analyzed using ELISA. FIG. 35 is a tabular summary showing cytokine secretion in splenocytes stimulated with LPS. […] Cytokine secretion in keratinocytes stimulated by TNFα: following stimulation with 35 ng/ml TNFα. And treatment with 10 μg/ml of DAP-1, the cytokine levels of IL-1α, G-CSF, MIP-2 and KC were reduced by 95%, 70%, 20% and 30# respectively.
PKCε inhibitors were also shown to have an anti-inflammatory effect on keratinocytes. Keratinocytes were derived from newborn BALB/C mice skin. The cells were incubated for 5 days in 24 wells plate. Cells were then incubated with PBS−/− as control or stimulated by LPS or TNFα. The PKCεinhibitors EPIP-1 (SEQ ID NO: 20), EPIP-2 (SEQ ID NO: 21), or EPIP-4 (SEQ ID NO: 23) were added. Medium containing secreted cytokines was collected after 48 hr and analyzed using ELISA. FIGS. 36-39 show the results for secretion of specific cytokines while Table 8 summarizes cytokine secretion for the various PKCε inhibitors: […]

C57BL/6J mouse = test: Wound model of skin inflammation, immunohistochemical staining (ICAM-1, Iba-1, MAC-2, CD3, neutrophils); type: in vivo; details: treated daily
Excerpt: A methodology was developed to detect and quantitatively assess inflammation in skin lesions in a wound setting which allows one to follow cutaneous inflammatory response in the different skin compartments and identify agents that affect this response (as a preliminary screening). Inflammatory response was considered severe when two of the following three conditions were evident: (1) abscess formation; (2) excessive leukocytosis (>100 cells in a fixed field×200); (3) high WB C/RBC ratio in blood vessels, where >20% of WBC content within the blood vessels is shown in a fixed field×200. Mechanistic characterization of the immunological response is studied utilizing markers to identify infiltration and activation of specific immunological cells. Examples for such markers are: ICAM-1 (as a marker activated basal keratinocytes and endothelial cells), MAC-2 (as a marker for activated macrophages) and CD3 (T cell marker).
(§1) A two-cm longitudinal incision was done on the upper back of a C57BL/6J mouse. Following wounding, a sterile pad was sutured to the mouse's skin. Animals were treated daily with HO/02/10 (n=12). Five days post-wounding, when inflammatory phase reaches its peak, the mice were sacrificed, skin tissues were embedded in paraffin and immunohistochemical staining was performed utilizing anti-ICAM-1 antibodies.
as §1, with “As above, a two-cm” for “A two-cm”, “with MPDY-1 (n=6).” for “with HO/02/10 (n=12).”
The effect of MPDY-1 on macrophage infiltration was also shown by Iba-1 staining. Iba-1 is a general marker for macrophages. […] As above, a two-cm longitudinal incision was done on the upper back of a C57BL/6J mouse. Following wounding, a sterile pad was sutured to the mouse's skin. Animals were treated daily with MPDY-1 (n=6). […]

[1] = 10 ppm in gel, score 0 (no response) to 4 (uncontrollable pruritus)

“Myristoyl-Phe-Ala-Arg-Lys-Gly-Ala-Leu-Arg-Gln (Myristoyl-FARKGALRQ) [MPDY-1]” was tested, and the “MPDY-1 concentration exhibiting the strongest inhibition of IKK activation” value (IKK; lowest concentration tested) was 0.1 mg/mL, the “TNFα induced IKK activation in keratinocytes” value (IKK; pretreated 1 hour, dose dependant) was “significantly reduced” and the “Pruritus score after minutes of histamine, 5 minutes” value (healthy volunteers; 1 μg/ml in DPBS, score 0 to 4) was 3. For the same substance, the “Pruritus score after minutes of histamine, 15 minutes” value (shortened to “Pruritus score … 15 minutes”) (healthy volunteers; 1 μg/ml in DPBS, score 0 to 4) was 1, the “Pruritus score after minutes of histamine, 5 minutes” value (healthy volunteers; 10 μg/ml in DPBS, score 0 to 4) was 2 and 1 and the “Pruritus score … 15 minutes” value (healthy volunteers; 10 μg/ml in DPBS, score 0 to 4) was 0. The “Pruritus score after minutes of histamine, 5 minutes” value (healthy volunteers; 10 ppm in cream, score 0 to 4) was 1, the “Pruritus score … 15 minutes” value (healthy volunteers; 10 ppm in cream, score 0 to 4) was 0 and the “Pruritus score after minutes of histamine, 5 minutes” value (healthy volunteers; [1]) was 2. For the same substance, the “Pruritus score … 15 minutes” value (healthy volunteers; [1]) was 0, the “redness, inflammation and pruritus as compared with control” value (healthy volunteers; histamine prick test, over the time course) was “significantly attenuated” and the “cytokine secretion from LPS and TNFα activated keratinocytes” value (keratinocytes; FIGS. 19 to 23) was “decrease”. The “cytokine secretion from IL-17A activated keratinocytes” value (keratinocytes; FIGS. 24 to 27) was “decrease”, the “cytokine secretion in keratinocytes” value (keratinocytes; stimulated by LPS, TNFα, or IL-17, 48 hr) was “effective in decreasing cytokine secretion” and the “Activation of macrophages (MAC-2 staining)” value (C57BL/6J mouse; 5 days, 1, 10 and 100 micrograms per mL) was “significantly inhibited”. The “ICAM expression on basal keratinocytes and endothelial cells in blood vessels of the skin (ICAM-1 staining)” value (C57BL/6J mouse; five days post-wounding) was “down regulation” and the “macrophage infiltration (Iba-1 staining)” value (C57BL/6J mouse; five days post-wounding) was “dose dependent effect”.
